From patent US20250057801A1, “Methods for Treating Traumatic Brain Injury” (The Government of the United States, as Represented by the …, priority 2023, published 2025)

How the values were obtained:
[1] = test system: penetrating brain injury (PTBI); experiment: Western blot of antioxidant, oxidative stress, membrane integrity and apoptosis markers after PTBI; type: in vivo, male Sprague-Dawley rats
Description: (§1) Three experimental groups (N=4-8 male Sprague-Dawley rats/group) were studied. The first group was a sham group in which there was no penetrating brain injury and no treatment with resveratrol triacetate (RES). The second group was subject to a penetrating brain injury (via probe insertion and balloon inflation) and treated with dimethyl sulfoxide, DMSO (vehicle, VEH) and dosed at 15 minutes and 6 hours after injury and then once daily. The third group was subject to a penetrating brain injury and treated with RES and dosed at 15 minutes and six hours after injury and then once daily.
(§2) After 60 minutes of the last dosing at either 24 hours or 3 days post-injury, fresh viable mitochondria were isolated from the injury core of rats' brain. Homogenate fractions were collected for a glutathione assay.
(§3) Mitochondrial bioenergetics parameters were measured using a high-throughput procedure of the Seahorse XFe96 Flux Analyzer. The glutathione content was measured using a 5,5′-dithiobis-(2-nitrobenzoic acid) (DTNB) cycling method/assay. Antioxidant and oxidative stress were measured by a Western blot (WB) analysis.
(§4) Graphs and statistical analysis were performed using GraphPad Prism program. Data are presented as mean±SEM (standard error of means). ANOVA with Fisher post-hoc test was used to evaluate significant difference at * p<0.05 vs. Sham; $ p<0.05 vs. Vehicle (N=4-8 animals/group).

[2] = test system: penetrating brain injury (PTBI); experiment: Mitochondrial bioenergetics (Seahorse XFe96 Flux Analyzer) in injury core mitochondria after PTBI; type: in vivo, male Sprague-Dawley rats; conditions: compared to VEH
Description: as §1, §2, §3, §4

[3] = test system: penetrating brain injury (PTBI); experiment: Total glutathione content (DTNB cycling assay) in brain homogenate after PTBI; type: in vivo, male Sprague-Dawley rats; conditions: 24 hours post-PTBI
Description: as §1, §2, §3, §4

[4] = cited from earlier work
[5] = in vivo; cited from earlier work

Compound	Cytochrome C (CYT C) expression compared to VEH ([1]; 24 hours post-PTBI)	catalase (CAT) expression compared to VEH ([1]; 24 hours post-PTBI)	glyceraldehyde 3-phosphate dehydrogenase (GAPDH) expression compared to VEH ([1]; 24 hours post-PTBI)	lipid peroxidation marker 4-hydroxynonenal (4-HNE) adduct formation compared to VEH ([1]; 24 hours post-PTBI)	superoxide dismutase (SOD) expression compared to VEH ([1]; 24 hours post-PTBI)	thioredoxin (TRX) expression compared to VEH ([1]; 24 hours post-PTBI)	CAT expression compared to VEH ([1]; 3 days post-PTBI)	CYT C expression compared to VEH ([1]; 3 days post-PTBI)	SOD expression compared to VEH ([1]; 3 days post-PTBI)	anti-apoptotic protein Bcl-2 expression compared to VEH ([1]; 3 days post-PTBI)	voltage-dependent anion channels (VDAC) expression compared to VEH ([1]; 3 days post-PTBI)	bioenergetics in injured core mitochondria, as measured by ATP synthesis ([2]; 24 hours post-PTBI)	bioenergetics in injured core mitochondria ([2]; 3 days post-PTBI)	total glutathione (GSH) content [3]	water solubility [4]	half-life [5]
CC(=O)Oc1ccc(/C=C/c2cc(OC(C)=O)cc(OC(C)=O)c2)cc1 [RES, 3′,5′,4′-tri-o-acetyl resveratrol]	+105%	−62%	−16.5%	non-significant improvement	+42%	+38%	−30%	+64%	+90%	+104%	+47%	trend of improved bioenergetics	non-significant trend of bioenergetics improvement	reversed PTBI-induced downregulation of total glutathione (GSH) content		
Oc1ccc(C=Cc2cc(O)cc(O)c2)cc1 [Resveratrol]															low water solubility	8 to 14 min
